Assays:
recombinant NL4-3 virus = assay: HIV cell culture assay (antiviral activity, luciferase readout); assay type: cell-based; conditions: Human immunodeficiency virus 1, NL43, MT2, MT-2 cells infected for 4-5 days with recombinant NL4-3 virus carrying Renilla luciferase
Method in brief: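 MT-2 cells infected for 4-5 days with NL4-3 reference virus carrying Renilla luciferase in place of part of nef, in presence of serial compound dilutions. Luciferase read with live-cell substrate; EC50 from median effect equation fit.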

[1] = Compound cytotoxicity, XTT-based colorimetric assay; assay type: cell-based; conditions: human; uninfected MT2 cells, day 4, XTT assay
Method in brief: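 Run under the antiviral-assay protocol but without virus. Viability was read on day 4 and CC50 values were derived from the readout.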

Row | Structure (SMILES) | EC50 (recombinant NL4-3 virus) | CC50 at 4 day [1]
1 | Cn1nc(NS(C)(=O)=O)c2c(Cl)ccc(-n3c([C@H](Cc4cc(F)cc(F)c4)NC(=O)Cn4nc(C(F)F)c5c4C(F)(F)[C@@H]4C[C@H]54)nc4nc(-c5ccncn5)ccc4c3=O)c21 (atropisomer, axis not shown; (P)) [Example 28, N-((S)-1-((3P)-3-(4-chloro-1-methyl-3-(methylsulfonamido)-1H-indazol-7-yl)-4-oxo-7-(pyrimidin-4-yl)-3,4-dihydropyrido[2,3-d]pyrimidin-2-yl)-2-(3,5-difluorophenyl)ethyl)-2-((3bS,4aR)-3-(difluoromethyl)-5,5-difluoro-3b,4,4a,5-tetrahydro-1H-cyclopropa[3,4]cyclopenta[1,2-c]pyrazol-1-yl)acetamide] | 0.04 nM | > 100 nM
2 | Cn1nc(NS(C)(=O)=O)c2c(Cl)ccc(-n3c([C@H](Cc4cc(F)cc(F)c4)NC(=O)Cn4nc(C(F)F)c5c4C(F)(F)[C@@H]4C[C@H]54)nc4nc(-c5ncncc5C(F)(F)F)ccc4c3=O)c21 (atropisomer, axis not shown; (P)) [Example 17, N-((S)-1-((3P)-3-(4-chloro-1-methyl-3-(methylsulfonamido)-1H-indazol-7-yl)-4-oxo-7-(5-(trifluoromethyl)pyrimidin-4-yl)-3,4-dihydropyrido[2,3-d]pyrimidin-2-yl)-2-(3,5-difluorophenyl)ethyl)-2-((3bS,4aR)-3-(difluoromethyl)-5,5-difluoro-3b,4,4a,5-tetrahydro-1H-cyclopropa[3,4]cyclopenta[1,2-c]pyrazol-1-yl)acetamide] | 0.038 nM | > 100 nM
3 | Cn1nc(NS(C)(=O)=O)c2c(Cl)ccc(-n3c([C@H](Cc4cc(F)cc(F)c4)NC(=O)Cn4nc(C(F)F)c5c4C(F)(F)[C@@H]4C[C@H]54)nc4nc(-n5ccc(C(F)(F)F)n5)ccc4c3=O)c21 (atropisomer, axis not shown; (P)) [Example 65, N-((S)-1-((3P)-3-(4-chloro-1-methyl-3-(methylsulfonamido)-1H-indazol-7-yl)-4-oxo-7-(3-(trifluoromethyl)-1H-pyrazol-1-yl)-3,4-dihydropyrido[2,3-d]pyrimidin-2-yl)-2-(3,5-difluorophenyl)ethyl)-2-((3bS,4aR)-3-(difluoromethyl)-5,5-difluoro-3b,4,4a,5-tetrahydro-1H-cyclopropa[3,4]cyclopenta[1,2-c]pyrazol-1-yl)acetamide] | 0.062 nM | > 100 nM
4 | CC(C)Cn1nccc1-c1ccc2c(=O)n(-c3ccc(Cl)c4c(NS(C)(=O)=O)nn(C)c34)c([C@H](Cc3cc(F)cc(F)c3)NC(=O)Cn3nc(C(F)F)c4c3C(F)(F)[C@@H]3C[C@H]43)nc2n1 (atropisomer, axis not shown; (P)) [Example 69, N-((S)-1-((3P)-3-(4-chloro-1-methyl-3-(methylsulfonamido)-1H-indazol-7-yl)-7-(1-isobutyl-1H-pyrazol-5-yl)-4-oxo-3,4-dihydropyrido[2,3-d]pyrimidin-2-yl)-2-(3,5-difluorophenyl)ethyl)-2-((3bS,4aR)-3-(difluoromethyl)-5,5-difluoro-3b,4,4a,5-tetrahydro-1H-cyclopropa[3,4]cyclopenta[1,2-c]pyrazol-1-yl)acetamide] | 0.099 nM | > 100 nM
5 | Cn1nc(NS(C)(=O)=O)c2c(Cl)ccc(-n3c([C@H](Cc4cc(F)cc(F)c4)NC(=O)Cn4nc(C(F)F)c5c4C(F)(F)[C@@H]4C[C@H]54)nc4nc(-c5ccnc(C(F)(F)F)n5)ccc4c3=O)c21 (atropisomer, axis not shown; (P)) [Example 37, N-((S)-1-((3P)-3-(4-chloro-1-methyl-3-(methylsulfonamido)-1H-indazol-7-yl)-4-oxo-7-(2-(trifluoromethyl)pyrimidin-4-yl)-3,4-dihydropyrido[2,3-d]pyrimidin-2-yl)-2-(3,5-difluorophenyl)ethyl)-2-((3bS,4aR)-3-(difluoromethyl)-5,5-difluoro-3b,4,4a,5-tetrahydro-1H-cyclopropa[3,4]cyclopenta[1,2-c]pyrazol-1-yl)acetamide] | 0.11 nM | > 100 nM
6 | Cn1nc(NS(C)(=O)=O)c2c(Cl)ccc(-n3c([C@H](Cc4cc(F)cc(F)c4)NC(=O)Cn4nc(C(F)F)c5c4C(F)(F)[C@@H]4C[C@H]54)nc4nc(-c5ccc(OC(F)F)cc5)ccc4c3=O)c21 (atropisomer, axis not shown; (P)) [Example 27, N-((S)-1-((3P)-3-(4-chloro-1-methyl-3-(methylsulfonamido)-1H-indazol-7-yl)-7-(4-(difluoromethoxy)phenyl)-4-oxo-3,4-dihydropyrido[2,3-d]pyrimidin-2-yl)-2-(3,5-difluorophenyl)ethyl)-2-((3bS,4aR)-3-(difluoromethyl)-5,5-difluoro-3b,4,4a,5-tetrahydro-1H-cyclopropa[3,4]cyclopenta[1,2-c]pyrazol-1-yl)acetamide] | 0.34 nM | > 100 nM
7 | Cn1nc(NS(C)(=O)=O)c2c(Cl)ccc(-n3c([C@H](Cc4cc(F)cc(F)c4)NC(=O)Cn4nc(C(F)F)c5c4C(F)(F)[C@@H]4C[C@H]54)nc4nc(-c5ccccn5)ccc4c3=O)c21 (atropisomer, axis not shown; (P)) [Example 60, N-((S)-1-((3P)-3-(4-chloro-1-methyl-3-(methylsulfonamido)-1H-indazol-7-yl)-4-oxo-7-(pyridin-2-yl)-3,4-dihydropyrido[2,3-d]pyrimidin-2-yl)-2-(3,5-difluorophenyl)ethyl)-2-((3bS,4aR)-3-(difluoromethyl)-5,5-difluoro-3b,4,4a,5-tetrahydro-1H-cyclopropa[3,4]cyclopenta[1,2-c]pyrazol-1-yl)acetamide] | 0.032 nM | > 100 nM
8 | Cn1nc(NS(C)(=O)=O)c2c(Cl)ccc(-n3c([C@H](Cc4cc(F)cc(F)c4)NC(=O)Cn4nc(C(F)F)c5c4C(F)(F)[C@@H]4C[C@H]54)nc4nc(-c5ccnnc5)ccc4c3=O)c21 (atropisomer, axis not shown; (P)) [Example 33, N-((S)-1-((3P)-3-(4-chloro-1-methyl-3-(methylsulfonamido)-1H-indazol-7-yl)-4-oxo-7-(pyridazin-4-yl)-3,4-dihydropyrido[2,3-d]pyrimidin-2-yl)-2-(3,5-difluorophenyl)ethyl)-2-((3bS,4aR)-3-(difluoromethyl)-5,5-difluoro-3b,4,4a,5-tetrahydro-1H-cyclopropa[3,4]cyclopenta[1,2-c]pyrazol-1-yl)acetamide] | 0.45 nM | > 100 nM
9 | Cn1nc(NS(C)(=O)=O)c2c(Cl)ccc(-n3c([C@H](Cc4cc(F)cc(F)c4)NC(=O)Cn4nc(C(F)F)c5c4C(F)(F)[C@@H]4C[C@H]54)nc4nc(-c5cccc(C(F)F)c5)ccc4c3=O)c21 (atropisomer, axis not shown; (P)) [Example 23, N-((S)-1-((3P)-3-(4-chloro-1-methyl-3-(methylsulfonamido)-1H-indazol-7-yl)-7-(3-(difluoromethyl)phenyl)-4-oxo-3,4-dihydropyrido[2,3-d]pyrimidin-2-yl)-2-(3,5-difluorophenyl)ethyl)-2-((3bS,4aR)-3-(difluoromethyl)-5,5-difluoro-3b,4,4a,5-tetrahydro-1H-cyclopropa[3,4]cyclopenta[1,2-c]pyrazol-1-yl)acetamide] | 0.11 nM | > 100 nM
10 | Cn1nc(NS(C)(=O)=O)c2c(Cl)ccc(-n3c([C@H](Cc4cc(F)cc(F)c4)NC(=O)Cn4nc(C(F)F)c5c4C(F)(F)[C@@H]4C[C@H]54)nc4nc(-c5cccc(C(C)(F)F)n5)ccc4c3=O)c21 (atropisomer, axis not shown; (P)) [Example 12, N-((S)-1-((3P)-3-(4-chloro-1-methyl-3-(methylsulfonamido)-1H-indazol-7-yl)-7-(6-(1,1-difluoroethyl)pyridin-2-yl)-4-oxo-3,4-dihydropyrido[2,3-d]pyrimidin-2-yl)-2-(3,5-difluorophenyl)ethyl)-2-((3bS,4aR)-3-(difluoromethyl)-5,5-difluoro-3b,4,4a,5-tetrahydro-1H-cyclopropa[3,4]cyclopenta[1,2-c]pyrazol-1-yl)acetamide] | 0.06 nM | > 100 nM
11 | Cn1nc(NS(C)(=O)=O)c2c(Cl)ccc(-n3c([C@H](Cc4cc(F)cc(F)c4)NC(=O)Cn4nc(C(F)F)c5c4C(F)(F)[C@@H]4C[C@H]54)nc4nc(-c5ccncc5)ccc4c3=O)c21 (atropisomer, axis not shown; (P)) [Example 34, N-((S)-1-((3P)-3-(4-chloro-1-methyl-3-(methylsulfonamido)-1H-indazol-7-yl)-4-oxo-7-(pyridin-4-yl)-3,4-dihydropyrido[2,3-d]pyrimidin-2-yl)-2-(3,5-difluorophenyl)ethyl)-2-((3bS,4aR)-3-(difluoromethyl)-5,5-difluoro-3b,4,4a,5-tetrahydro-1H-cyclopropa[3,4]cyclopenta[1,2-c]pyrazol-1-yl)acetamide] | 0.07 nM | > 100 nM
12 | Cc1cccc(-c2ccc3c(=O)n(-c4ccc(Cl)c5c(NS(C)(=O)=O)nn(C)c45)c([C@H](Cc4cc(F)cc(F)c4)NC(=O)Cn4nc(C(F)F)c5c4C(F)(F)[C@@H]4C[C@H]54)nc3n2)n1 (atropisomer, axis not shown; (P)) [Example 31, N-((S)-1-((3P)-3-(4-chloro-1-methyl-3-(methylsulfonamido)-1H-indazol-7-yl)-7-(6-methylpyridin-2-yl)-4-oxo-3,4-dihydropyrido[2,3-d]pyrimidin-2-yl)-2-(3,5-difluorophenyl)ethyl)-2-((3bS,4aR)-3-(difluoromethyl)-5,5-difluoro-3b,4,4a,5-tetrahydro-1H-cyclopropa[3,4]cyclopenta[1,2-c]pyrazol-1-yl)acetamide] | 0.031 nM | > 100 nM
